The results in this text go back to ChEMBL document CHEMBL1152894, “Novel CYP17 inhibitors: synthesis, biological evaluation, structure-activity relationships and modelling of methoxy- and hydroxy-substituted methyleneimidazolyl biphenyls” (Eur J Med Chem, 2009).

One may read the IC50 as the concentration at which inhibition is half-maximal. What is called inhibition is the relative decrease from the control value, in per cent.

Data set [1] deals with T1, Steroid 17-alpha-hydroxylase/17,20 lyase (Homo sapiens, UniProt P05093).
T1 sequence (P05093 whole entry): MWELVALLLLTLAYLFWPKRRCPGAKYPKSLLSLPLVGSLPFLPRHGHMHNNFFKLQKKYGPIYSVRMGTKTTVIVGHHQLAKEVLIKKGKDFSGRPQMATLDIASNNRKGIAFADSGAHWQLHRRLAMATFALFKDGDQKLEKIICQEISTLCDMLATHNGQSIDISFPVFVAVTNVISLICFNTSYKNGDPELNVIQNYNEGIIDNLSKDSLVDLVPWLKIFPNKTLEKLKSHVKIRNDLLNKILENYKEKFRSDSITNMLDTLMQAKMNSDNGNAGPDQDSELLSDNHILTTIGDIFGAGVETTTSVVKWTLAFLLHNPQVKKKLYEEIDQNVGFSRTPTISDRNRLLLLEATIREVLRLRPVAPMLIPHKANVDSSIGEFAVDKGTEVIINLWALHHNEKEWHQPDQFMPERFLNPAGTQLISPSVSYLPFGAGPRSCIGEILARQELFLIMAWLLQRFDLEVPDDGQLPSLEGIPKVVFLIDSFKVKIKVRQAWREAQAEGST
The experiment in a line: Inhibition of human CYP17 expressed in Escherichia coli coexpressing NADPH-P450 reductase.

Data set [2] deals with T1, Steroid 17-alpha-hydroxylase/17,20 lyase. As to the kind of experiment: Inhibition of human CYP17 expressed in Escherichia coli coexpressing NADPH-P450 reductase at 2 uM.
Data set [3] shares this target. The experiment in a line: Inhibition of human CYP17 expressed in Escherichia coli coexpressing NADPH-P450 reductase at 0.2 uM.
Data set [4] concerns the target T2, CYP11B1 (Homo sapiens, UniProt P15538).
T2 sequence (P15538 whole entry): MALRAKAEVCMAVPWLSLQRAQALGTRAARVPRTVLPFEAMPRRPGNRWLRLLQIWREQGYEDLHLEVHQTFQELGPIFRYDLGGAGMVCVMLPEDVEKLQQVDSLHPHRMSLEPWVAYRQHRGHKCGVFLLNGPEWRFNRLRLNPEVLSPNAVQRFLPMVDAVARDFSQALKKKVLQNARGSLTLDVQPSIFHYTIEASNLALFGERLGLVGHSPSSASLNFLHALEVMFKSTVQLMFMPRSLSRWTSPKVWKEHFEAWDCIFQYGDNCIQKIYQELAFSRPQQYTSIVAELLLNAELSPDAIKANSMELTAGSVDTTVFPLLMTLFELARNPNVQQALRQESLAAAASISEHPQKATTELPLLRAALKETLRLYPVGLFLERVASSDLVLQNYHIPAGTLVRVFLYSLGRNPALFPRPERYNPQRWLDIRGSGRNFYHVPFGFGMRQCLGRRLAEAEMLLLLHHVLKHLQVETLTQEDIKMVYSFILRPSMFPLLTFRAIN
The experiment in a line: Inhibition of recombinant CYP11B1 expressed in V79MZh11B1 cells at 0.2 uM. Type of data set: cell-based. The following applies: hamster, V79MZh11B1 cells expressing recombinant CYP11B1.

For data set [5], the target named is T2, CYP11B1. As to the kind of experiment: Inhibition of recombinant CYP11B1 expressed in expressed in V79MZh11B1 cells at 2 uM. Format: cell-based. The following applies: hamster, V79MZh11B1 cells expressing recombinant CYP11B1.
Data set [6] has as its target T3, CYP3A4 (Homo sapiens, UniProt P08684). As to the kind of experiment: Inhibition of recombinant CYP3A4 expressed in baculovirus-infected insect microsome at 10 uM. Type of data set: ADME.
For data set [7], the target named is T3, CYP3A4. The experiment in a line: (§1) Inhibition of recombinant CYP3A4 expressed in baculovirus-infected insect microsome at 1 uM. Type of data set: ADME. The following applies: human.
Data set [8] deals with T1, Steroid 17-alpha-hydroxylase/17,20 lyase. As to the kind of experiment: Ratio of ketoconazole to drug against IC50 for human CYP17 expressed in Escherichia coli coexpressing NADPH-P450 reductase.
For another data set, the target named is Cytochrome P450 3A4 (Homo sapiens, UniProt P08684). The description is as §1. Type of data set: ADME.
For data set [9], the target named is T4, Cytochrome P450 11B1, mitochondrial (Homo sapiens, UniProt P15538).
T4 sequence (P15538 whole entry): T2 sequence (P15538 whole entry)
As to the kind of experiment: Inhibition of recombinant CYP11B1 expressed in expressed in V79MZh11B1 cells. Type of data set: cell-based.

T3 sequence (P08684 whole entry): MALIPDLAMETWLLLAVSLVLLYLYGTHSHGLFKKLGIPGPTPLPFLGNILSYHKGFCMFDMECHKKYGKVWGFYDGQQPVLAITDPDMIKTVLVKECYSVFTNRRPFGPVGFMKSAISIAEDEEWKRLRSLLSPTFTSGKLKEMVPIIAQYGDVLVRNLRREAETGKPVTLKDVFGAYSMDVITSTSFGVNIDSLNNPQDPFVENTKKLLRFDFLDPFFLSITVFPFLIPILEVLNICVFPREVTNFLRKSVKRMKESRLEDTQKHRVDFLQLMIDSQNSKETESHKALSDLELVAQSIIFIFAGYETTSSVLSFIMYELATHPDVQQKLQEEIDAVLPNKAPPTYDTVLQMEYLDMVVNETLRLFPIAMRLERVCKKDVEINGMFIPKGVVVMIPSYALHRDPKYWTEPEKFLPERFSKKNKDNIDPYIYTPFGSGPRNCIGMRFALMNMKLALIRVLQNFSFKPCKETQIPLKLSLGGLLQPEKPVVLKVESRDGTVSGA
Cytochrome P450 3A4, sequence (P08684 whole entry): as above

The molecule `CCC(c1ccc(-c2ccc(O)c(O)c2)cc1)n1ccnc1` (racemic) displayed a 50% inhibitory concentration (IC50) in data set [1] of 152 nM. Further, the values for the inhibition at 2 µM (in data set [2]; at CYP11B1 [5]) were 91% and 92%, respectively. The inhibition at 0.2 µM in [3] worked out at 56%; on CYP11B1 [4] it was 38%. For the same molecule, the inhibition at 10 µM on CYP3A4 [6] came out at 99%. In addition, the inhibition at 1 µM at CYP3A4 [7] amounted to 91%.
In data set [2], `CCOc1ccc(-c2ccc(C(CC)n3ccnc3)cc2)cc1` (racemic) yielded an inhibition at 2 µM of 25%. Also, 0.2 µM produced 3% inhibition in data set [3].
Molecule `CCC(c1ccc(-c2ccc(O)cc2)cc1F)n1ccnc1` (racemic) returned a concentration for half-maximal inhibition (IC50) in data set [1] of 90 nM. In addition, the inhibition at 2 µM in data set [2] turned out to be 94%; at CYP11B1 [5] it was 97%. For the same molecule, the inhibition at 0.2 µM amounted to 64% in data set [3] and 89% at CYP11B1 [4]. Besides, the inhibition at 10 µM on CYP3A4 [6] was 91%. The inhibition at 1 µM on CYP3A4 [7] was determined as 86%.
`CCC(c1ccc(-c2ccc(O)c(C)c2)cc1)n1ccnc1` (racemic) showed a concentration for half-maximal inhibition (IC50) in data set [1] of 261 nM. Besides, the “Ratio IC50” value in data set [8] stood at 50. In addition, the inhibition at 2 µM in [2] worked out at 89%; at CYP11B1 [5] it was 96%. For the same molecule, the inhibition at 0.2 µM in data set [3] was determined as 45%; on CYP11B1 [4], 91%. In addition, the inhibition at 10 µM on CYP3A4 [6] came to 98%. Moreover, on CYP3A4 [7], the inhibition at 1 µM came out at 93%.
`CCC(c1ccc(-c2ccc(O)cc2)cc1)n1ccnc1` (racemic): in [1], the IC50 turned out to be 231 nM. Moreover, the inhibition at 2 µM is 80% in data set [2] and 95% on CYP11B1 [5]. Besides, the inhibition at 0.2 µM in [3] was 27%; on CYP11B1 [4], 89%. Further, at CYP3A4 [6], the inhibition at 10 µM was 91%. For the same molecule, the inhibition at 1 µM at CYP3A4 [7] was determined as 87%.
`CC(=O)N1CCN(c2ccc(OCC3COC(Cn4ccnc4)(c4ccc(Cl)cc4Cl)O3)cc2)CC1` (stereo not given) [KETOCONAZOLE]: the inhibition at 0.2 µM on CYP11B1 [4] is 61%. In addition, the inhibition at 2 µM on CYP11B1 [5] worked out at 93%.
`CCC(c1ccc(-c2cccc(O)c2)cc1)n1ccnc1` (racemic): the half-inhibitory concentration (IC50) in data set [1] stood at 164 nM. Further, the inhibition at 2 µM in data set [2] stood at 89%; on CYP11B1 [5] it was 95%. Besides, the inhibition at 0.2 µM in data set [3] was 55%; at CYP11B1 [4], 90%. Also, the inhibition at 10 µM at CYP3A4 [6] was 88%. At CYP3A4 [7], the inhibition at 1 µM was determined as 84%.
As to `CCC(c1ccc(-c2ccc(O)c(Cl)c2)cc1)n1ccnc1` (racemic), the IC50 amounted to 217 nM in data set [1] and 91 nM at Cytochrome P450 3A4. Also, the “Ratio IC50” value in data set [8] was 50. Also, the values for the inhibition at 2 µM (in data set [2]; on CYP11B1 [5]) were 89% and 96%, respectively. Moreover, the inhibition at 0.2 µM in [3] amounted to 44%; at CYP11B1 [4] it was 89%. Also, the inhibition at 10 µM at CYP3A4 [6] stood at 99%.
For `COc1ccc(-c2ccc(C(C)n3ccnc3)cc2)cc1` (racemic), in data set [2], the inhibition at 2 µM is 40%. In [3], the inhibition at 0.2 µM was determined as 9%.
In turn, `CCC(c1ccc(-c2ccc(OC)c(OC)c2)cc1)n1ccnc1` (racemic) returned an inhibition at 2 µM in data set [2] of 58%. In data set [3], this molecule gave an inhibition at 0.2 µM of 9%. Moreover, at CYP3A4 [6], the inhibition at 10 µM came out at 93%. For the same molecule, the inhibition at 1 µM at CYP3A4 [7] amounted to 70%.
For the molecule `C[C@]12CC[C@H](O)CC1=CC[C@@H]1[C@@H]2CC[C@]2(C)C(c3cccnc3)=CC[C@@H]12` [ABIRATERONE], the IC50 in data set [9] came out at 1610 nM.
In [2], `CCC(c1ccc(-c2ccc(OC)cc2)cc1)n1ccnc1` (racemic) registered an inhibition at 2 µM of 36%. Further, the inhibition at 0.2 µM in [3] was found to be 2%. Also, the inhibition at 10 µM at CYP3A4 [6] stood at 80%. For the same molecule, on CYP3A4 [7], the inhibition at 1 µM was found to be 73%.
For the molecule `CCC(c1ccc(-c2ccc(O)c(O)c2)cc1F)n1ccnc1` (racemic), in data set [1], the 50% inhibitory concentration (IC50) amounted to 52 nM. Also, the inhibition at 2 µM was 95% in [2] and 90% at CYP11B1 [5]. Further, the inhibition at 0.2 µM is 69% in data set [3] and 51% on CYP11B1 [4]. In addition, the inhibition at 10 µM on CYP3A4 [6] amounted to 100%. The inhibition at 1 µM on CYP3A4 [7] was 93%.
In data set [1], `CCC(c1ccc(-c2cc(C)c(O)c(C)c2)cc1)n1ccnc1` (racemic) came in with an IC50 of 379 nM. The “Ratio IC50” value in data set [8] was determined as 50. For the same molecule, the inhibition at 2 µM is 78% in data set [2] and 85% at CYP11B1 [5]. The figures for the inhibition at 0.2 µM (in data set [3]; at CYP11B1 [4]) were 28% and 45%, respectively. Further, the inhibition at 10 µM at CYP3A4 [6] was 100%. Moreover, at CYP3A4 [7], the inhibition at 1 µM came out at 94%.
Regarding `CCC(c1ccc(-c2cccc(OC)c2)cc1)n1ccnc1` (racemic), in [1], inhibition was half-maximal at 188 nM (IC50). Also, the inhibition at 2 µM in [2] worked out at 83%; on CYP11B1 [5], 96%. Further, the inhibition at 0.2 µM in [3] worked out at 31%; on CYP11B1 [4], 84%. Besides, the inhibition at 10 µM on CYP3A4 [6] was found to be 92%. On CYP3A4 [7], the inhibition at 1 µM was 80%.
Regarding `COc1cccc(-c2ccc(C(C)n3ccnc3)cc2)c1` (racemic), 2 µM produced 59% inhibition in [2]. This molecule also gave an inhibition at 0.2 µM in data set [3] of 8%.
With `CCC(c1ccc(-c2cc(O)cc(O)c2)cc1)n1ccnc1` (racemic), the IC50 in data set [1] was found to be 195 nM. Further, the inhibition at 2 µM in data set [2] amounted to 90%; on CYP11B1 [5] it was 97%. Further, the inhibition at 0.2 µM in [3] amounted to 48%; at CYP11B1 [4], 93%. For the same molecule, the inhibition at 10 µM at CYP3A4 [6] was 99%. Besides, the inhibition at 1 µM on CYP3A4 [7] turned out to be 90%.
